Data published in patent publication US9890118B2, “Prostamides for the treatment of glaucoma and related diseases” (Allergan, Inc., priority 2004, dated 2018).
Marks after values point to notes of the source that are not given here.

System: dogs (Beagle)
Experiment: Intraocular pressure studies by pneumatonometry in conscious dogs
Assay type: in vivo
Conditions: topical 25 μL drop, 0.03% drug in 0.1% polysorbate 80:10 mM TRIS, one eye; for Change in Intraocular Pressure (IOP), 0 hrs: 0 hrs (just before drug administration); for Change in Intraocular Pressure (IOP), 2 hrs: 2 hrs after dosing; for Change in Intraocular Pressure (IOP), 4 hrs: 4 hrs after dosing; for Change in Intraocular Pressure (IOP), 6 hrs: 6 hrs after dosing; for Change in Intraocular Pressure (IOP), 24 hrs: 24 hrs after dosing
Description: Intraocular pressure studies were carried out for compounds 1-3 by pneumatonometry in dogs (Beagle) of both sexes (10-15 kg). The animals remained conscious throughout the study and were gently restrained by hand. Drugs were administered topically to one eye as a 25 μL volume drop comprising 0.03% drug, 0.1% polysorbate 80:10 mM TRIS, the other eye received 0.1% polysorbate 80:10 mM TRIS. Proparacaine (0.1%) was used for corneal anesthesia during tonometry. Intraocular pressure was determined just before drug administration and at 2, 4 and 6 hours thereafter on each day of the 5 day study. […] Drug was administered immediately after the first IOP reading.

| Structure (SMILES) | Change in Intraocular Pressure (IOP), 0 hrs | Change in Intraocular Pressure (IOP), 2 hrs | Change in Intraocular Pressure (IOP), 4 hrs | Change in Intraocular Pressure (IOP), 6 hrs | Change in Intraocular Pressure (IOP), 24 hrs |
| --- | --- | --- | --- | --- | --- |
| CCCCC[C@H](O)/C=C/[C@@H]1[C@@H](C/C=C\CCCC(=O)NCCc2ccc(OC(C)=O)c(OC(C)=O)c2)[C@@H](O)C[C@H]1O [Compound 1, acetic acid 2-acetoxy-5-(2-{(Z)-7-[(1R,2R,3R,5S)-3,5-dihydroxy-2-((E)-(S)-3-hydroxy-oct-1-enyl)-cyclopenyl]-hept-5-enoylamino}-ethyl)-phenyl ester] | 0 | −4.4** | −3.4** | −3.1** | −1.4* |
| CCCCC[C@H](O)/C=C/[C@@H]1[C@@H](C/C=C\CCCC(=O)NCCc2ccc(O)c(O)c2)[C@@H](O)C[C@H]1O [Compound 2, (Z)-7-[(1R,2R,3R,5S)-3,5-Dihydroxy-2-((E)-(S)-3-hydroxy-oct-1-enyl)-cyclopentyl]-hept-5-enoic acid [2-(3,4-dihydroxy-phenyl)-ethyl]-amide] | 0 | −3.8* | −3.2** | −3.2** | −1.1* |
| CCCCC[C@H](O)/C=C/[C@@H]1[C@@H](C/C=C\CCCC(=O)NCCc2c[nH]c3ccc(O)cc23)[C@@H](O)C[C@H]1O [Compound 3, (Z)-7-[(1R,2R,3R,5S)-3,5-Dihydroxy-2-((E)-(S)-3-hydroxy-oct-1-enyl)-cyclopentyl]-hept-5-enoic acid [2-(5-hydroxy-1H-indol-3-yl)-ethyl]-amide] | 0 | −3.2* | −5.8* | −7.6** | −2.2 |
